“Also recorded” adds a separate entry of the source. Like-named read-outs stand apart in the source and are kept apart here.
Columns and labels:
Ae. aegypti = experiment: WHO adult susceptibility test on field samples, Ae. aegypti; assay type: in vivo, Aedes aegypti; conditions: standard diagnostic doses
Source text: The analyses conducted using data from An. gambiae (s.l.) samples were repeated using data from the An. funestus subgroup, An. arabiensis, An. coluzzii, An. funestus and An. gambiae samples (Additional file 2). The same approach was also used for susceptibility test data from Aedes albopictus and Ae. aegypti to investigate whether the same relationships could be detected in these vectors of arboviruses, as detailed in Additional file 3.
Additional File 3: Cross-resistance to pyrethroids within wild populations of Aedes vectors […]
If structural diversity within the pyrethroids is also associated with divergence in resistance within the Aedes vectors of arboviruses, this would lend weight to the findings for malaria vectors presented in the main manusc ript. Like the Anopheles vectors, target-site mutations and metabolic resistance are thought to be the main resistance mechanisms in Aedes mosquitoes. At least ten mutations in the Aedes aegypti Vgsc gene have been identified and the most widespread mutation, […]
mutations and is also associated with DDT resistance. More recently, the V1016G mutation has been found in Ae. albopictus in Viet Nam and Italy, and both this allele and the F1534C and F1534S […]
expression of cytochrome P450s has also been implicated in pyrethroid resistance within Aedes mosquitoes and there is evidence that metabolic resistance can confer cross -resistance to multiple pyrethroids. For example, over-expression of CYP9J28 is associated with metabolic resistance to […]
target site- and P450-mediated resistance in Ae. aegypti strains found variation in resistance to seven pyrethroids and hypothesised that some patterns of resistance could be linked to structural differences, but also noted that general conclusions are challenging to make without a greater number of compounds with a single modification to compare. No studies of structure activity relationships using a wide range of pyrethroids and P450s from Aedes mosquitoes have been conducted to-date, but data on resistance in wild populations are available. A wider range of pyrethroids are more typically tested by studies of resistance in Aedes vectors, compared to Anopheles vectors, although these studies are also more varied in terms of diagnostic dose, bioass ay method and life cycle stage, making comparisons across studies difficult. Here we selected studies that used a common experimental design and investigated correlations in resistance to pairs of pyrethroids mirroring part of the work on Anopheles vectors presented in the main manuscript.
We identified all instances within a public insecticide resistance database where an Aedes field sample had been subdivided among tests for different pyrethroids. We then identified the most commonly used bioassay type across the new pyrethroid dataset, which was the WHO adult susceptibility test as described for malaria vectors, and the most commonly used diagnostic dose for […]
each compound (Table S2). […]
removed. Paired results were then extracted, and the mean values for the Pearson’s correlation coefficient were calculated for each pyrethroid pair using 1,000 bootstaps in SPSS Statistics v25.
Table S5. Diagnostic doses and data volumes for each pyrethroid.
Pyrethroid Most common dose Number of data points
The number of data points available for each pyrethroid from an Ae. aegypti sample that was used to test at least one other pyrethroid, using standard WHO susceptibility tests and standard diagnostic doses, is given.

CYP6P9a = conditions: Incubation time 2h; mean ± SD; ref [38], [41]; cited from earlier work
[1] = tested on: CYP6M2, CYP6P3 and CYP6P9a; experiment: Pyrethroid metabolism (insecticide depletion), across CYP6M2, CYP6P3 and CYP6P9a; assay type: in vitro ADME, Anopheles gambiae and An. funestus; conditions: for vulnerability for metabolic attack by the three enzymes, rank in words: CYP6P3, CYP6M2 and CYP6P9a, among the six pyrethroids
Source text: (§1) In this study, the half maximal inhibitory concentration (IC50), which provides a value for inhibition of each P450 by each pyrethroid (also referred to as ‘binding affinity’), and the percentage depletion, which gives a value for metabolism of each pyrethroid by each P450 (also referred to as vulnerability to metabolic attack), were both included as parameters to establish a P450s structural activity relationship model. This model was used to understand both the chemistry of the pyrethroids and the interaction with mosquito P450s that function as monooxygenases in metabolic resistance, to predict cross-resistance liabilities in vivo. […] A low percentage depletion indicates low metabolism of the pyrethroid, which means that it may be less vulnerable to resistance mediated by P450s.
The values for percentage depletion (metabolism) of each pyrethroid by three of the enzymes CYP6M2, CYP6P3 and CYP6P9a, which were expressed in a single plasmid construct, were also extracted from the same sources and used for the comparative analysis.

Anopheles arabiensis = conditions: Sudan, WHO Bioassay 1998, cited from earlier work
CYP9J5 = conditions: read-out: IC50 CYP9J5, inhibition of diethoxyfluorescein metabolism, cited from earlier work
CYP6P3 = conditions: cited from earlier work
[2] = tested on: P450 panel (CYP6M2, CYP6P3, CYP6P9a, CYP6P2, CYP9J5, CYP6Z3, CYP6Z2); experiment: P450 inhibition, whole P450 panel (mean across P450s); assay type: biochemical, Anopheles gambiae and An. funestus; conditions: for IC50: Anopheles gambiae and Anopheles funestus, mean of the seven P450s of Table S2, read-out: IC50 Mean across P450s
Source text: as §1, with “Cytochrome P450 inhibition assays using fluorogenic probe substrates have become commonplace in drug discovery screening cascades and are a rapid method of screening for insecticide interactions with mosquito P450s to predict insecticide binding, metabolism, cross-resistance and synergism. In” for “In”
In addition, inhibition activity data for these pyrethroids exposed to CYP6Z3 from the An. gambiae Kisumu strain were also generated (Additional file 1).

Anopheles sinensis = tested on: Anopheles sinensis; set-up: method as in PMID 24159535; conditions: resistance ratios using LC50 values from a susceptible strain; most susceptible to bifenthrin, cyfluthrin and etofenprox, in that order; ref [55]; cited from earlier work
[3] = Pair 3 λ-cyhalothrin vs etofenprox, N 21 paired Ae. aegypti samples
[4] = Pair 8 permethrin vs λ-cyhalothrin, N 56 paired Ae. aegypti samples
[5] = Pair 9 deltamethrin vs λ-cyhalothrin, N 67 paired Ae. aegypti samples
[6] = mean ± SD across CYP6M2, CYP6P3, CYP6P9a
[7] = ID 200047, F1, larval collection, 9/2007-11/2007, Elmaygoma, ref Seidahmed OME et al. Eastern Mediterranean Health Journal. 2012;18(7):769-76
[8] = footnote b, ref Yunta et al. 2019[10]
[9] = read-out: IC50 CYP6P3, inhibition of diethoxyfluorescein metabolism, footnote b, ref Yunta et al. 2019[10]
[10] = recombinant P450s, probe diethoxyfluorescein
[11] = Pair 1 deltamethrin vs etofenprox, N 29 paired Ae. aegypti samples
[12] = Pair 4 permethrin vs etofenprox, N 31 paired Ae. aegypti samples
[13] = Pair 6 deltamethrin vs permethrin, N 136 paired Ae. aegypti samples
[14] = footnote a, ref Yunta et al. 2016[8]

| Structure (SMILES) | Mean percent mortality (SE) (Ae. aegypti; [3]) | Mean percent mortality (SE) (Ae. aegypti; [4]) | Mean percent mortality (SE) (Ae. aegypti; [5]) | % Insecticide depletion CYP6P9a (CYP6P9a) | % Insecticide depletion Mean across P450s [1, 6] | mortality (Anopheles arabiensis; [7]) | IC50 (CYP9J5; [8]) | IC50 (CYP6P3; [9]) | IC50 [2, 10] | vulnerability for metabolic attack by the three enzymes, rank in words [1] | susceptibility of larvae, rank in words (Anopheles sinensis) | Mean percent mortality (SE) (Ae. aegypti; [11]) | Mean percent mortality (SE) (Ae. aegypti; [12]) | Mean percent mortality (SE) (Ae. aegypti; [13]) | IC50 (CYP9J5; [14]) | also measured |
| --- | --- | --- | --- | --- | --- | --- | --- | --- | --- | --- | --- | --- | --- | --- | --- | --- |
| CC1(C)[C@H](C(=O)O[C@H](C#N)c2cccc(Oc3ccccc3)c2)[C@@H]1/C=C(\Cl)C(F)(F)F (racemic) [λ-Cyhalothrin, λ-cyhalothrin] | 72.40 (4.52) percent | 84.52 (3.40) percent | 74.16 (3.55) percent | 67.1 ± 3.1% | 66.6 ± 17.0% | 98.9 | 4.2 µM | 9.6 µM | 7.2 µM |  |  |  |  |  |  | Mean percent mortality (SE) (Ae. aegypti; Pair 7 λ-cyhalothrin vs cyfluthrin, N 25 paired Ae. aegypti samples): 66.90 (5.01) percent |
| Cc1c(COC(=O)[C@@H]2[C@H](/C=C(\Cl)C(F)(F)F)C2(C)C)cccc1-c1ccccc1 (racemic) [Bifenthrin, bifenthrin] |  |  |  | 53.4 ± 1.6% | 56.3% |  | 2.5 µM | 3.5 µM | 9.8 µM | lowest vulnerability | most susceptible |  |  |  |  | binding to the P450s panel, rank in words ([2]; among the six pyrethroids): lowest binding |
| CCOc1ccc(C(C)(C)COCc2cccc(Oc3ccccc3)c2)cc1 [Etofenprox, etofenprox] | 16.81 (4.43) percent |  |  | 98.5 ± 0.2% | 89.0 ± 17.5% |  | 8 µM | 8.3 µM | 7 µM | most vulnerable | most susceptible | 21.59 (4.75) percent | 21.09 (4.89) percent |  |  | Mean percent mortality (SE) (Ae. aegypti; Pair 2 cyfluthrin vs etofenprox, N 22 paired Ae. aegypti samples): 21.14 (5.32) percent; metabolism in words ([1]; by CYP6P3, CYP6M2 and CYP6P9a): strongly metabolised; also recorded: most depleted |
| CC1(C)C(C=C(Cl)Cl)C1C(=O)OCc1cccc(Oc2ccccc2)c1 (centres unmarked) [Permethrin, permethrin] |  | 70.10 (3.99) percent |  | 87.8 ± 0.7% |  | 96 |  |  | 7.6 µM | most vulnerable | least susceptible |  | 63.39 (5.36) percent | 61.44 (2.40) percent | 6.5 µM | Mean percent mortality (SE) (Ae. aegypti; Pair 5 permethrin vs cyfluthrin, N 79 paired Ae. aegypti samples): 59.01 (3.18) percent; % Insecticide depletion Mean across P450s ([1]; Anopheles gambiae and An. funestus): 82.1 ± 21.3%; IC50 (CYP6P3): 6.8 µM |
| CC1(C)[C@H](C(=O)O[C@H](C#N)c2cccc(Oc3ccccc3)c2)[C@@H]1C=C(Br)Br [Deltamethrin, deltamethrin] |  |  | 85.64 (2.66) percent |  | 83.5 ± 24.2% | 99.5 |  |  |  |  |  | 90.68 (2.80) percent |  | 88.10 (1.66) percent | 6.1 µM | Mean percent mortality (SE) (Ae. aegypti; Pair 10 deltamethrin vs cyfluthrin, N 72 paired Ae. aegypti samples): 88.43 (1.94) percent; mortality (Anopheles arabiensis; F0, larval collection, 10/2009-11/2009, El Managil, ref Abdalla H et al. Parasites Vectors. 2014;7:213): 92; mortality (Anopheles arabiensis; F0, larval collection, 10/2009-11/2009, Rufaa, ref Abdalla H et al. Parasites Vectors. 2014;7:213): 94; mortality (Anopheles arabiensis; F0, larval collection, 10/2009-11/2009, Wad El Hadad, ref Abdalla H et al. Parasites Vectors. 2014;7:213): 94; mortality (Anopheles arabiensis; F0, larval collection, 10/2010-11/2010, Wad El Hadad, ref Abdalla H et al. Parasites Vectors. 2014;7:213): 71; mortality (Anopheles arabiensis; F0, larval collection, 10/2010-11/2010, Wad Medani, ref Abdalla H et al. Parasites Vectors. 2014;7:213): 80; IC50 (CYP6P3; read-out: IC50 CYP6P3, inhibition of diethoxyfluorescein metabolism, footnote a, ref Yunta et al. 2016[8]): 3.2 µM; IC50 [2]: 5.5 µM |

From PMC7893915, “Assessing cross-resistance within the pyrethroids in terms of their interactions with key cytochrome P450 enzymes and resistance in vector populations” (Parasites & Vectors, 2021)
